Like-named read-outs stand apart in the source and are kept apart here.
Tests used:
[1] = Blood oxygen tests immediately before and after transdermal ozone therapy (Table 2); assay type: in vivo, horse; conditions: for PO2 / SO2: post-treat (immediately after therapy); for K+ blood concentration / Na+ blood concentration: post-treat; for K+ blood concentration: normal range 5.3-3.0; for Na+ blood concentration: normal range 150.0-133.0
Experimental: Blood tests were also conducted for three horses to determine when transdermal ozone therapy should be provided. The horses were Shamon, Pauli and Sinbad. The blood tests were conducted immediately before transdermal ozone therapy and immediately thereafter. For the horse Shamon, blood tests were also conducted 12 hours and 24 hours after transdermal ozone therapy.

O=[O+][O-] [ozone]
discomfort during the treatment (five horses, during treatment): none of the horses appeared to be uncomfortable | respiration of the horses during treatment (five horses, during treatment): increased | motion marks in the rest of the ride (horse Moniq, after treatment on day 1 and day 2, motion 1 throughout day 1): no motion marks | muscle spasms found by physiotherapist (horse Moniq, day 2 and day 3 of race, lumbar spasms confirmed on day 1 before treatment): no muscle spasms | creatine kinase (horse Moniq, treated on day 1 and day 2 of race, lowered from 3873): 706 | rider's report on second and third days of the race (horse Ophelia, dehydrated and fatigued on day 1, treated after first and second day): felt very strong and consistent | performance on third day of the race (horse Shamon, severe fatigue by day 2, treated in the afternoon of day 2, finished fifteenth): rode very well | CK and AST levels (horses that presented symptoms of tying-up): marked decrease | occurrence of muscle spasms (horses treated transdermally with ozone): significantly reduced | energy levels and stamina (horses with general fatigue from constant hard work and competition): marked improvement | motion marks or stiffness during the race (mare Pauli, pre-treatments before the race, history of gluteal muscle spasms and tying up, finished fourteenth): no motion marks or stiffness | owner's report on second and third days of the race (mare Viola, treated on first and second day): felt much stronger and looser | aspertine amino transferase (mare Viola, treated on first and second day, lowered from more than 2000): 1814 U/L | creatine kinase (mare Viola, tying up on day 1, treated on first and second day, lowered from 5896): 1599 IU/K | average heart-rate during treatment (non-accustomed horses, enclosure 42-45 °C, oxygen flow 1 l/min to ozonator): 42 beats per minute | muscle stiffness caused by long periods of intense exercise (preliminary study on endurance horses): benefit to reduce muscle stiffness | PO2 ([1]; horse Pauli, pre-treat 39.30): 49.20 mmHg | SO2 ([1]; horse Pauli, pre-treat 80.30): 87.10% | K+ blood concentration ([1]; horse Pauli, pre-treat 3.73): 4.37 mmol/L | Na+ blood concentration ([1]; horse Pauli, pre-treat 143.00): 144.30 mmol/L | PO2 ([1]; horse Shamon, pre-treat 40.00): 52.70 mmHg | SO2 ([1]; horse Shamon, pre-treat 74.60): 90.50% | K+ blood concentration ([1]; horse Shamon, pre-treat 3.41): 4.09 mmol/L | Na+ blood concentration ([1]; horse Shamon, pre-treat 136.00): 148.30 mmol/L | PO2 ([1]; horse Sinbad, pre-treat 35.90): 48.00 mmHg | SO2 ([1]; horse Sinbad, pre-treat 70.60): 86.40% | K+ blood concentration ([1]; horse Sinbad, pre-treat 3.49): 3.04 mmol/L | Na+ blood concentration ([1]; horse Sinbad, pre-treat 147.40): 150.20 mmol/L | dehydration effect of transdermal ozone therapy ([1]; horses Shamon, Pauli, Sinbad): no dehydration effect | Na+, K+ and Cl- blood concentrations versus normal ranges ([1]; horses Shamon, Pauli, Sinbad, before and after therapy): remained within normal ranges
